Results reported in patent publication US20170296573A1, “ANTITUMOR DRUG COMPRISING BETA-CYCLODEXTRIN” (JRC G. K., priority 2014, published 2017).

How the values were obtained:
AKT = assay: Example 2 Method A: AKT phosphorylation in RCC4 cells stimulated with IGF1, serum free; format: cell-based; settings: 10 mM 2DG 2 hours, 10 mM bCD (MBCD), 0-30 ng/ml IGF1 5 minutes
Procedure: We ran 20 μg of proteins per lane for western blots. We ran 8, 10, 12.5 and 15% gels depending on the size of proteins being detected by western blots. When there are two proteins having a similar size, gel is flowed in each protein to make western blot analysis about each protein. The immunoprecipitation was undergone by adding 200 μg of protein from solubilized cells and Protein G Sepharose or Protein A Sepharose (Sigma P3296/P9242) pre-conjugated with immunoprecipitation antibody to a buffer for immunoprecipitation, and slowly rotating the tube containing the sample buffer at 4° C. overnight. The buffer for immunoprecipitation comprises 20 mM Tris Ph 7.5, 1% Triton-X100, 150 mM NaCl, phosphatase inhibitor cocktail (Cell Signaling (#58709S)), and 10% glycerol. Next morning, the content in the tube was centrifuged. The precipitate was washed with the same buffer twice and dissolved in SDS buffer. The precipitate in the solution was separated with 15% SDS-PAGE or 12.5% SDS-PAGE and analyzed by Western blotting.
The bCD used herein was MBCD.
RCC4 cells were incubated in serum free media for 2 hours with or without 10 mM 2DG. In the last hour, 10 mM bCD was added to each one subset of the cells treated/untreated with 2DG. Then 0-30 ng/ml IGF1 was added and the incubation continued for 5 minutes before the cells were harvested and analyzed by Western blotting.

Bak-Bcl-xL complex = Bak-Bcl-xL complex (Homo sapiens, UniProt Q07817); assay: Example 7: immunoprecipitation of Bak-bound proteins in RCC4 cells, Bcl-xL; format: cell-based; settings: RCC4 cells pre-treated with 2DG and bCD, 3 μM ABT
Sequence of Bak-Bcl-xL complex (Q07817 whole entry, one chain of several): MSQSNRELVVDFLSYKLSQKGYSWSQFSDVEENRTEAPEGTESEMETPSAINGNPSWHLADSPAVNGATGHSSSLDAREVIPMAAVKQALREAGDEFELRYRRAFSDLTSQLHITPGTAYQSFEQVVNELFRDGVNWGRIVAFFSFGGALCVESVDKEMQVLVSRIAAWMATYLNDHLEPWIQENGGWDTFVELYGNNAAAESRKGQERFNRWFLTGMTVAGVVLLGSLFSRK
Procedure: (§1) We ran 20 μg of proteins per lane for western blots. We ran 8, 10, 12.5 and 15% gels depending on the size of proteins being detected by western blots. When there are two proteins having a similar size, gel is flowed in each protein to make western blot analysis about each protein. The immunoprecipitation was undergone by adding 200 μg of protein from solubilized cells and Protein G Sepharose or Protein A Sepharose (Sigma P3296/P9242) pre-conjugated with immunoprecipitation antibody to a buffer for immunoprecipitation, and slowly rotating the tube containing the sample buffer at 4° C. overnight. The buffer for immunoprecipitation comprises 20 mM Tris Ph 7.5, 1% Triton-X100, 150 mM NaCl, phosphatase inhibitor cocktail (Cell Signaling (#58709S)), and 10% glycerol. […] The precipitate in the solution was separated with 15% SDS-PAGE or 12.5% SDS-PAGE and analyzed by Western blotting.
(§2) (A and B) RCC4 cells were treated with 2DG, bCD, 2DG +bCD, or left untreated as done in Example 6. Approximately 20 μg of the whole cell lysates (WCL) were analyzed by western blotting. Bak- and Bcl-xL-bound proteins were immune-precipitated from approximately 200 μg of cell lysates and analyzed by western blotting. (C) 3 μM ABT with or without the 20 μM pan-caspase inhibitor z-VAD was added to the cells pre-treated with the combination of 2DG and bCD over 2 hours, and analyzed by Western blotting for caspase 9. […]

caspase 9 = assay: Example 7: caspase 9 cleavage in RCC4 cells, Western blot; format: cell-based
Procedure: as §1, §2

cytochrome c = assay: Example 7: cytochrome c release assay in RCC4 cells; format: cell-based; settings: RCC4 cells pre-treated with 2DG-bCD
Procedure: RCC4 cells grown and treated on glass cover slips were first fixed with 3.7% formaldehyde in PBS for 10 minutes. Then the cover slips were briefly exposed to 100% methanol kept in a −20° C. freezer. Cover slips were incubated with 10% serum in PBS before being stained with mouse anti-cytochrome c antibody overnight. Next morning, the cover slips were washed and blocked with 10% serum in PBS for 30 minutes. Then they were exposed to secondary anti-mouse antibody conjugated with AF488 for 30 minutes. They were washed again and exposed to propidium iodide (1 μg/mL in PBS) for 15 minutes to stain DNA in the nucleus before being washed and mounted on the glass slides. We used a Keyence BZ9000 microscope with a 100× objective lens for observation. […] (E) RCC4 cells treated with 2DG-bCD (left panel), RCC4 cells treated with 2DG-bCD-ABT (middle panel), and RCC4 cells treated with 2DG-bCD-ABT in the presence of 20 μM pan-caspase inhibitor z-VAD (right panel) were immunostained using anti-cytochrome c antibody and GFP-conjugated anti-mouse antibody. Nuclei were stained red with propidium iodide.

[1] = mice, injected, four hours later; cited from earlier work
UOK121 cells = assay: Example 10 Test B: cyclodextrin with 2DG-ABT in UOK121 cells, live cells by trypan-blue dye exclusion; format: cell-based, human; settings: 10 mM 2DG, 10 mM cyclodextrin, 0.3 μM ABT-263, 25 mM glucose
Procedure: Dead and live cells were counted by trypan-blue dye exclusion methods. These experiments were done in triplicate, and the error bars indicate the standard deviation.
(Test A) UOK121 cells were incubated in 10% serum medium with 5 mM or 10 mM α-, β-, and γ-cyclodextrins for 45 minutes. The same medium without any cyclodextrin was also incubated as a control. The cells were harvested and analyzed by Western Blots for the phosphorylation of AKT and ERK1/2 as an indicator of the AKT and ERK1/2 activations. (Test B) 10 mM 2DG was added to a medium of U0K121 cells in the presence of 25 mM glucose, and the medium was incubated for 1.5 hours. To the medium was added 10 mM α-, β-, or γ-cyclodextrin, and the medium was incubated for 30 minutes. Then, 0.3 μM ABT-263 was added thereto, and the medium was further incubated for 2 hours. Separately, a control that includes only α-, β-, or γ-cyclodextrin without 2DG or ABT-263, and another control that includes neither α-, β-, or γ-cyclodextrin, nor 2DG or ABT-263 were prepared. 2.5 hours after adding each cyclodextrin (i.e., 2 hours after adding ABT-263), all the cells were washed with the medium twice, and next day the live cells were counted by trypan-blue dye exclusion assay.

## O=CC[C@@H](O)[C@H](O)[C@H](O)CO [2DG, 2-deoxyglucose]
AKT
  AKT phosphorylation: increasing the phosphorylation of AKT

## CC1(C)CCC(c2ccc(Cl)cc2)=C(CN2CCN(c3ccc(C(=O)NS(=O)(=O)c4ccc(N[C@H](CCN5CCOCC5)CSc5ccccc5)c(S(=O)(=O)C(F)(F)F)c4)cc3)CC2)C1 [ABT, ABT-263]
Bak-Bcl-xL complex
  Bak-Bcl-xL complex: caused the dissociation
Caspase 9; RCC4 cells pre-treated with 2DG and bCD, 3 μM ABT
  caspase 9 activation: activated
Caspase 9; after ABT addition, RCC4 cells pre-treated with 2DG-bCD
  time to full caspase 9 activation: ≤ 2 h
Cytochrome c; with or without 20 μM z-VAD
  release of cytochrome c from mitochondria: took place only after the addition of ABT
Cytochrome c; after ABT addition
  time to full release of cytochrome c: ≤ 2 h

## CC(O)COC[C@H]1O[C@@H]2O[C@H]3[C@H](O)[C@@H](O)[C@@H](O[C@H]4[C@H](O)[C@@H](O)[C@@H](O[C@H]5[C@H](O)[C@@H](O)[C@@H](O[C@H]6[C@H](O)[C@@H](O)[C@@H](O[C@H]7[C@H](O)[C@@H](O)[C@@H](O[C@H]8[C@H](O)[C@@H](O)[C@@H](O[C@H]1[C@H](O)[C@H]2O)O[C@@H]8COCC(C)O)O[C@@H]7COCC(C)O)O[C@@H]6COCC(C)O)O[C@@H]5COCC(C)O)O[C@@H]4COCC(C)O)O[C@@H]3COCC(C)O (stereo partly drawn) [HPBCD, (2-hydroxypropyl)-β-cyclodextrin]
[1]
  amount that remains in circulation: about 50%

## OC[C@H]1O[C@@H]2O[C@H]3[C@H](O)[C@@H](O)[C@@H](O[C@H]4[C@H](O)[C@@H](O)[C@@H](O[C@H]5[C@H](O)[C@@H](O)[C@@H](O[C@H]6[C@H](O)[C@@H](O)[C@@H](O[C@H]7[C@H](O)[C@@H](O)[C@@H](O[C@H]1[C@H](O)[C@H]2O)O[C@@H]7CO)O[C@@H]6CO)O[C@@H]5CO)O[C@@H]4CO)O[C@@H]3CO [α-cyclodextrin]
UOK121 cells
  enhancement of the combination effect of 2DG-ABT (live cells): little enhanced
